# Laboratory results published in US9062041B2 (Bayer Intellectual Property GmbH, priority 2011, dated 2015).
# pIC50: −log10 of the molar value.
# Experiments:
# Type in all cases: cell-based
# [1] = target: T1, human PGD receptor (Homo sapiens, UniProt Q13258); experiment: cAMP antagonism test on the human prostaglandin D receptor (HTRF cAMP detection); conditions: selectivity towards hDP, IC50 measured by cAMP antagonism test
# T1 sequence (Q13258 1-359): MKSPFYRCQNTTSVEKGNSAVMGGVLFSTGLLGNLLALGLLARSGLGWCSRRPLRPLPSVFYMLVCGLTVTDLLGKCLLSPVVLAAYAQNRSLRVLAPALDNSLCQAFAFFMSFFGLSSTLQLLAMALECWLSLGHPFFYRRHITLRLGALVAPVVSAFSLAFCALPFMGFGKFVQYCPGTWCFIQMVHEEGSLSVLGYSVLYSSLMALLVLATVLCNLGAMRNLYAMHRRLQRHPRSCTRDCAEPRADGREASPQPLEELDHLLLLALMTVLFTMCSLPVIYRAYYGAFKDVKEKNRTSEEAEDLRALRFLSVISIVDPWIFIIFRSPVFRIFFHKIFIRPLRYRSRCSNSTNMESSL
# Procedure, shortened: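 Cells pre-mixed with cAMP-d2 were preincubated with compound (0.8 nM–16.5 μM) for 20 min at RT, then stimulated with 3× PGD2 solution (6 nM, in PBS-IBMX) for 30 min at RT. After lysis (20 min), HTRF read at 665/620 nm; antagonism seen as rise in FRET ratio.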
# [2] = target: EP4 subtype of the human PGE2 receptor (Homo sapiens, UniProt P35408); experiment: cAMP antagonism test on the human EP4 receptor (HTRF cAMP detection); conditions: selectivity towards hEP4, IC50 measured by cAMP antagonism test
# Procedure, shortened: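 Cells expressing human EP4 preincubated 20 min at RT with compound (0.8 nM–16.5 μM), then stimulated with PGE2 (0.3 nM in 3× solution, with IBMX) 60 min at RT. After lysis, cAMP measured by HTRF competition (665/620 nm ratio); antagonism seen as rise in FRET signal.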
# [3] = target: EP2 subtype of the human PGE2 receptor (Homo sapiens, UniProt P43116); experiment: cAMP antagonism test on the human EP2 receptor (HTRF cAMP detection); conditions: hEP2 receptor, read-out: Antagonism hEP2 IC50
# Procedure, shortened: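 Cells expressing human EP2 preincubated 20 min at RT with compound (0.8 nM–16.5 μM), then stimulated 60 min with PGE2 (3× solution 1.5 nM) in PBS-IBMX. After 20 min lysis, cAMP measured by competitive HTRF with cAMP-d2 and Eu cryptate anti-cAMP antibody (665/620 nm ratio).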
# EP2 subtype of the human PGE2 receptor, sequence (P43116 whole entry): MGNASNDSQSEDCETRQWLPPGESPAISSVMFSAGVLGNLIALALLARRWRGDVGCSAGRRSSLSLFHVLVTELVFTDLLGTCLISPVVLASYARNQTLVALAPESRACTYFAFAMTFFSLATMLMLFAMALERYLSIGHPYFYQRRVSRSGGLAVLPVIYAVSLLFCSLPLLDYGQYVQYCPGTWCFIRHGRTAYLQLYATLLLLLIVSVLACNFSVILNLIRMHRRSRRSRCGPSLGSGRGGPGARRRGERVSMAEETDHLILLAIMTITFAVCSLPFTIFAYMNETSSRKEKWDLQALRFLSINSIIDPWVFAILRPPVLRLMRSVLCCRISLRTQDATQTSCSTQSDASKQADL
# EP4 subtype of the human PGE2 receptor, sequence (P35408 whole entry): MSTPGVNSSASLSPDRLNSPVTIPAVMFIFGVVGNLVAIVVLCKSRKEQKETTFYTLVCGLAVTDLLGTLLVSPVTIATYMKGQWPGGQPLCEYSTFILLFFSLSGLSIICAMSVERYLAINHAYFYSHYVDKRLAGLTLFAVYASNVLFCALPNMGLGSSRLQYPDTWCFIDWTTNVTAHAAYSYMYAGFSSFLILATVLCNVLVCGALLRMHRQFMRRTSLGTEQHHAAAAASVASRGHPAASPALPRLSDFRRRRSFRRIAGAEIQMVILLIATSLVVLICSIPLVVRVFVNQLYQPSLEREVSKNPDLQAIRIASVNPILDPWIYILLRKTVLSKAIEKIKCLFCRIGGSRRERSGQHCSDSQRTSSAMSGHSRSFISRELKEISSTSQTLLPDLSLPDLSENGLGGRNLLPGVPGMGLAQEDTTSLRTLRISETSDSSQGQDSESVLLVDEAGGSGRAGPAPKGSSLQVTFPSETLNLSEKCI
Selectivity hEP2/hDP [1],Selectivity hEP2/hEP4 [2],pIC50 [3],SMILES
xxx (xxx > 100),xxx (xxx > 100),7.51,"Cc1cc2nn(CC3CN(C(=O)c4ccc(S(F)(F)(F)(F)F)cc4)C3)cc2cc1C(=O)NCCN1CCOCC1 [Example 280, 6-methyl-N-(2-morpholinoethyl)-2-({1-[4-(pentafluoro-λ^6-sulphanyl)benzoyl]-azetidin-3-yl}methyl)-2H-indazol-5-carboxamide]"
xxx (xxx > 100),xxx (xxx > 100),7.64,"COCCNC(=O)c1cc2cn(CC3CCN(C(=O)c4cn(C)c5ccccc45)CC3)nc2cc1C [Example 281, N-(2-methoxyethyl)-6-methyl-2-({1-[(1-methyl-1H-indol-3-yl)carbonyl]-piperidin-4-yl}methyl)-2H-indazol-5-carboxamide]"
xxx (xxx > 100),xxx (xxx > 100),7.70,"COCCNC(=O)c1ccc2nn(CC3CN(C(=O)c4cn(C)c5ccccc45)C3)cc2c1C [Example 282, N-(2-methoxyethyl)-4-methyl-2-({1-[(1-methyl-1H-indol-3-yl)carbonyl]azetidin-3-yl}methyl)-2H-indazol-5-carboxamide]"
xxx (xxx > 100),xxx (xxx > 100),7.25,"Cc1c(C(=O)NCC(F)(F)F)ccc2nn(CC3CCN(C(=O)c4ccc(Oc5ccc(Cl)cc5)cc4)CC3)cc12 [Example 284, 2-({1-[4-(4-chlorophenoxy)benzoyl]piperidin-4-yl}methyl)-4-methyl-N-(2,2,2-trifluoroethyl)-2H-indazol-5-carboxamide]"
xxx (xxx > 100),xxx (xxx > 100),7.00,"Cc1ccc(Oc2ccc(C(=O)N3CCC(Cn4cc5c(C)c(C(=O)NCC(F)(F)F)ccc5n4)CC3)cc2)cc1 [Example 285, 4-methyl-2-({1-[4-(4-methylphenoxy)benzoyl]piperidin-4-yl}methyl)-N-(2,2,2-trifluoroethyl)-2H-indazol-5-carboxamide]"
xxx (xxx > 100),xxx (xxx > 100),7.00,"Cc1c(C(=O)NCC(F)(F)F)ccc2nn(CC3CCN(C(=O)c4ccc(-c5ccc(F)cc5)cc4)CC3)cc12 [Example 286, 2-({1-[(4′-fluorobiphenyl-4-yl)carbonyl]piperidin-4-yl}methyl)-4-methyl-N-(2,2,2-trifluoroethyl)-2H-indazol-5-carboxamide]"
xx (xx: 10-100),xx (xx: 10-100),5.98,"Cc1c(C(=O)NCC(F)(F)F)ccc2nn(CC3CCN(C(=O)c4ccc(N5CCOCC5)cc4)CC3)cc12 [Example 287, 4-methyl-2-{[1-(4-morpholinobenzoyl)piperidin-4-yl]methyl}-N-(2,2,2-trifluoro-ethyl)-2H-indazol-5-carboxamide]"
xxx (xxx > 100),xxx (xxx > 100),7.40,"Cc1c(C(=O)NCC(F)(F)F)ccc2nn(CC3CCN(C(=O)c4ccc(SC(F)(F)F)cc4)CC3)cc12 [Example 288, 4-methyl-N-(2,2,2-trifluoroethyl)-2-[(1-{4-[(trifluoromethyl)sulphanyl]benzoyl}-piperidin-4-yl)methyl]-2H-indazol-5-carboxamide]"
xxx (xxx > 100),xxx (xxx > 100),7.29,"Cc1c(C(=O)NCC(F)(F)F)ccc2nn(CC3CCN(C(=O)c4cn(C)c5ccccc45)CC3)cc12 [Example 289, 4-methyl-2-({1-[(1-methyl-1H-indol-3-yl)carbonyl]piperidin-4-yl}methyl)-N-(2,2,2-trifluoroethyl)-2H-indazol-5-carboxamide]"
xxx (xxx > 100),xxx (xxx > 100),7.37,"Cc1c(C(=O)NCC(F)(F)F)ccc2nn(CC3CCN(C(=O)c4cc5ccccc5n4C)CC3)cc12 [Example 290, 4-methyl-2-({1-[(1-methyl-1H-indol-2-yl)carbonyl]piperidin-4-yl}methyl)-N-(2,2,2-trifluoroethyl)-2H-indazol-5-carboxamide]"
xxx (xxx > 100),xxx (xxx > 100),7.70,"Cc1c(C(=O)NCC(F)(F)F)ccc2nn(CC3CCN(C(=O)c4cc5cc(F)ccc5n4C)CC3)cc12 [Example 292, 2-({1-[(5-fluoro-1-methyl-1H-indol-2-yl)carbonyl]piperidin-4-yl}methyl)-4-methyl-N-(2,2,2-trifluoroethyl)-2H-indazol-5-carboxamide]"
xxx (xxx > 100),xxx (xxx > 100),7.55,"COc1ccc2c(c1)cc(C(=O)N1CCC(Cn3cc4c(C)c(C(=O)NCC(F)(F)F)ccc4n3)CC1)n2C [Example 293, 2-({1-[(5-methoxy-1-methyl-1H-indol-2-yl)carbonyl]piperidin-4-yl}methyl)-4-methyl-N-(2,2,2-trifluoroethyl)-2H-indazol-5-carboxamide]"
xxx (xxx > 100),xxx (xxx > 100),7.88,"Cc1c(C(=O)NCC(F)(F)F)ccc2nn(CC3CCN(C(=O)c4cc5cc(Cl)ccc5n4C)CC3)cc12 [Example 294, 2-({1-[(5-chloro-1-methyl-1H-indol-2-yl)carbonyl]piperidin-4-yl}methyl)-4-methyl-N-(2,2,2-trifluoroethyl)-2H-indazol-5-carboxamide]"
xxx (xxx > 100),xxx (xxx > 100),7.15,"COc1ccc2cc(C(=O)N3CCC(Cn4cc5c(C)c(C(=O)NCC(F)(F)F)ccc5n4)CC3)n(C)c2c1 [Example 295, 2-({1-[(6-methoxy-1-methyl-1H-indol-2-yl)carbonyl]piperidin-4-yl}methyl)-4-methyl-N-(2,2,2-trifluoroethyl)-2H-indazol-5-carboxamide]"
xxx (xxx > 100),xxx (xxx > 100),7.53,"Cc1c(C(=O)NCC(F)(F)F)ccc2nn(CC3CCN(C(=O)c4cc5ccccc5[nH]4)CC3)cc12 [Example 296, 2-{[1-(1H-Indol-2-ylcarbonyl)piperidin-4-yl]methyl}-4-methyl-N-(2,2,2-trifluoroethyl)-2H-indazol-5-carboxamide]"
xx (xx: 10-100),xx (xx: 10-100),6.34,"Cc1c(C(=O)NCC(F)(F)F)ccc2nn(CC3CCN(C(=O)c4nc5ccccc5n4C)CC3)cc12 [Example 297, 4-methyl-2-({1-[(1-methyl-1H-benzimidazol-2-yl)carbonyl]piperidin-4-yl}-methyl)-N-(2,2,2-trifluoroethyl)-2H-indazol-5-carboxamide]"
xx (xx: 10-100),xx (xx: 10-100),6.46,"Cc1c(C(=O)NCC(F)(F)F)ccc2nn(CC3CCN(C(=O)c4cnc(-c5ccccc5)s4)CC3)cc12 [Example 298, 4-methyl-2-({1-[(2-phenylthiazol-5-yl)carbonyl]piperidin-4-yl}methyl)-N-(2,2,2-trifluoroethyl)-2H-indazol-5-carboxamide]"
xx (xx: 10-100),xx (xx: 10-100),6.27,"Cc1c(C(=O)NCC(F)(F)F)ccc2nn(CC3CCN(C(=O)c4nc5ccccc5o4)CC3)cc12 [Example 299, 2-{[1-(benzoxazol-2-ylcarbonyl)piperidin-4-yl]methyl}-4-methyl-N-(2,2,2-trifluoroethyl)-2H-indazol-5-carboxamide]"
xxx (xxx > 100),xxx (xxx > 100),7.10,"Cc1c(C(=O)NCC(F)(F)F)ccc2nn(CC3CCN(C(=O)c4cnc(-c5ccccc5)o4)CC3)cc12 [Example 300, 4-methyl-2-({1-[(2-phenyloxazol-5-yl)carbonyl]piperidin-4-yl}methyl)-N-(2,2,2-trifluoroethyl)-2H-indazol-5-carboxamide]"
xxx (xxx > 100),xxx (xxx > 100),7.61,"Cc1c(C(=O)NCC(F)(F)F)ccc2nn(CC3CCN(C(=O)c4ccc(Oc5ccc(C(F)(F)F)cn5)cc4)CC3)cc12 [Example 301, 4-methyl-N-(2,2,2-trifluoroethyl)-2-{[1-(4-{[5-(trifluoromethyl)pyridin-2-yl]-oxy}benzoyl)piperidin-4-yl]methyl}-2H-indazol-5-carboxamide]"
